According to patent US12390532B2, “ALK protein regulator and anti-tumor application thereof” (SHANGHAITECH UNIVERSITY, priority 2019, dated 2025):

The compounds below were run on SR cells (NPM-ALK, human anaplastic large cell lymphoma cells) (assay: Proliferation inhibition (IC50) in SR cells, CCK8 (WST) reagent). Conditions: 72 h, SR cells, WST reagent, 72 hours, read-out: IC50 (half inhibitory concentration), Brigatinib series in lymphoma cell lines.
Assay type: cell-based
Method: The ALK gene rearrangement positive cell line used was SR cells (NPM-ALK, human anaplastic large cell lymphoma cells). MDA-MB231 was a triple-negative breast cancer cell. Both SR cells and MDA-MB231 cells were purchased from ATCC.
The tumor cell line used was daily cultured in a 37° C. incubator containing 5% CO2. The medium was RPMI1640 supplemented with 10% FCS and Penicillin-Streptomycin.
The IC50 of the compound of the present disclosure was determined using Promega's Cell Titer Blue, Cell Titer GLO or commercially available WST reagents. The specific steps were as follows: the cells were seeded in a 96-well plate containing 100 microliters of RPMI medium containing serum at a number of 2000 cells/well. On the second day, the original drug and the compound of the present disclosure were serially diluted and added to the cells. After 72 hours of treatment with the compound of the present disclosure, the cell activity detection reagent was added to the culture medium for cell activity determination according to the instructions. The negative control was DMSO, and the positive control was the original drug, and the cells were treated in the same manner as the compound of the present disclosure. The growth inhibition of the compounds of the present disclosure on cells was plotted by Prism Graphpad software and the IC50 of the compounds of the present disclosure was counted from it.
We conducted dose-dependent experiments on the designed and synthesized compounds of the present disclosure in SR cells. […] The cells were treated with different concentrations of compounds (starting at 10 μM, 3 times dilution factor, 10 concentrations). After 72 hours, the cells were detected using CCK8 reagent (WST).

| SMILES | IC50 |
| --- | --- |
| COc1cc(N2CCC(N3CCN(CCCCCC#Cc4cccc5c4CN(C4CCC(=O)NC4=O)C5=O)CC3)CC2)ccc1Nc1ncc(Cl)c(Nc2ccccc2P(C)(C)=O)n1 (centres unmarked) [SIAIS293015, 3-(4-(7-(4-(1-(4-((5-chloro-4-((2-(dimethylphosphono)phenyl)amino)pyrimidin-2-yl)amino)-3-methoxyphenyl)piperidin-4-yl)piperazin-1-yl)hept-1-yn-1-yl)-1-oxoisoindolin-2-yl)piperidine-2,6-dione] | 1.2 nM |
| COc1cc(N2CCC(N3CCN(C(=O)COc4cccc5c4C(=O)N(C4CCC(=O)NC4=O)C5=O)CC3)CC2)ccc1Nc1ncc(Cl)c(Nc2ccccc2P(C)(C)=O)n1 (centres unmarked) [SIAIS293016, 4-(2-(4-(1-(4-((5-chloro-4-((2-(dimethylphosphono)phenyl)amino)pyrimidin-2-yl)amino)-3-methoxyphenyl)piperidin-4-yl)piperazin-1-yl)-2-oxoethoxy)-2-(2,6-dioxopiperidin-3-yl)isoindoline-1,3-dione] | 7.2 nM |

Other lines, results leading:

| IC50 | SMILES |
| --- | --- |
| 22 ± 10.9 nM | COc1cc(N2CCC(N3CCN(C(=O)COCCOCCNc4cccc5c4CN(C4CCC(=O)NC4=O)C5=O)CC3)CC2)ccc1Nc1ncc(Cl)c(Nc2ccccc2P(C)(C)=O)n1 (centres unmarked) [SIAIS352054, 3-(4-((2-(2-(2-(4-(1-(4-((5-chloro-4-((2-(dimethylphosphono)phenyl)amino)pyrimidine-2-yl)amino)-3-methoxyphenyl)piperidin-4-yl)piperazin-1-yl)-2-oxoethoxy)ethoxy)ethyl)amino)-1-oxoisoindolin-2-yl)piperidine-2,6-dione] |
| 0.9 ± 0.2 nM | COc1cc(N2CCC(N(C)CCCCSc3cccc4c3CN(C3CCC(=O)NC3=O)C4=O)CC2)ccc1Nc1ncc(Cl)c(Nc2ccccc2P(C)(C)=O)n1 (centres unmarked) [SIAIS353043, 3-(4-((4-((1-(4-((5-chloro-4-((2-(dimethylphosphono)phenyl)amino)pyrimidin-2-yl)amino)-3-methoxyphenyl)piperidin-4-yl) (methyl)amino)butyl)thio)-1-oxoisoindolin-2-yl)piperidine-2,6-dione] |
| 102 ± 43.9 nM | COc1cc(N2CCC(N3CCN(C(=O)COCCOCCOCCOCCOCCNc4cccc5c4CN(C4CCC(=O)NC4=O)C5=O)CC3)CC2)ccc1Nc1ncc(Cl)c(Nc2ccccc2P(C)(C)=O)n1 (centres unmarked) [SIAIS352057, 3-(4-((17-(4-(1-(4-((5-chloro-4-((2-(dimethylphosphono)phenyl)amino)pyrimidin-2-yl)amino)-3-methoxyphenyl)piperidin-4-yl)piperazin-1-yl)-17-oxo-3,6,9,12,15-pentaoxaheptadecyl)amino)-1-oxoisoindolin-2-yl)piperidine-2,6-dione] |
| 0.5 ± 0.2 nM | COc1cc(N2CCC(N(C)CCCCCCSc3cccc4c3CN(C3CCC(=O)NC3=O)C4=O)CC2)ccc1Nc1ncc(Cl)c(Nc2ccccc2P(C)(C)=O)n1 (centres unmarked) [SIAIS353041, 3-(4-((6-((1-(4-((5-chloro-4-((2-(dimethylphosphono)phenyl)amino)pyrimidin-2-yl)amino)-3-methoxyphenyl)piperidin-4-yl)(methyl)amino)hexyl)thio)-1-oxoisoindolin-2-yl)piperidine-2,6-dione] |

Same assay, conditions: 72 h, read-out: IC50 (half inhibitory concentration), Alectinib series in lymphoma cell lines, SR cells, WST reagent, 72 hours

| IC50 | SMILES |
| --- | --- |
| 5.2 nM | CCc1cc2c(cc1N1CCC(N3CCN(CCCCCNc4cccc5c4C(=O)N(C4CCC(=O)NC4=O)C5=O)CC3)CC1)C(C)(C)c1[nH]c3cc(C#N)ccc3c1C2=O (centres unmarked) [SIAIS293008, 8-(4-(4-(5-((2-(2,6-dioxopiperidin-3-yl)-1,3-dioxoisoindolin-4-yl)amino)pentyl)piperazin-1-yl)piperidin-1-yl)-9-ethyl-6,6-dimethyl-11-oxo-6,11-dihydro-5H-benzo[b]carbazole-3-carbonitrile] |
| 10.1 ± 4.3 nM | CCc1cc2c(cc1N1CCC(N3CCNCC3)CC1)C(C)(C)c1[nH]c3cc(C#N)ccc3c1C2=O [Alectinib derivative C (SIAIS184192), 9-Ethyl-6,6-dimethyl-11-oxo-8-(4-(piperazin-1-yl)piperidin-1-yl)-6,11-dihydro-5H-benzo[b]carbazole-3-carbonitrile] |
| 15.1 nM | CCc1cc2c(cc1N1CCC(N3CCN(CCCCCCNc4cccc5c4C(=O)N(C4CCC(=O)NC4=O)C5=O)CC3)CC1)C(C)(C)c1[nH]c3cc(C#N)ccc3c1C2=O (centres unmarked) [SIAIS293009, 8-(4-(4-(6-((2-(2,6-dioxopiperidin-3-yl)-1,3-dioxoisoindolin-4-yl)amino)hexyl)piperazin-1-yl)piperidin-1-yl)-9-ethyl-6,6-dimethyl-11-oxo-6,11-dihydro-5H-benzo[b]carbazole-3-carbonitrile] |
| 3.2 ± 1.93 nM | CCc1cc2c(cc1N1CCC(N3CCN(C(=O)CCCCCCNc4cccc5c4CN(C4CCC(=O)NC4=O)C5=O)CC3)CC1)C(C)(C)c1[nH]c3cc(C#N)ccc3c1C2=O (centres unmarked) [SIAIS262095, 8-(4-(4-(7-((2-(2,6-dioxopiperidin-3-yl)-1-oxoisoindolin-4-yl)amino)heptanoyl)piperazin-1-yl)piperidin-1-yl)-9-ethyl-6,6-dimethyl-1-oxo-6,11-dihydro-5H-benzo[b]carbazole-3-carbonitrile] |
| 1.9 nM | CCc1cc2c(cc1N1CCC(N3CCN(CCCCc4cccc5c4CN(C4CCC(=O)NC4=O)C5=O)CC3)CC1)C(C)(C)c1[nH]c3cc(C#N)ccc3c1C2=O (centres unmarked) [SIAIS293005, 8-(4-(4-(4-(2-(2,6-dioxopiperidin-3-yl)-1-oxoisoindolin-4-yl)butyl)piperazin-1-yl)piperidin-1-yl)-9-ethyl-6,6-dimethyl-11-oxo-6,11-dihydro-5H-benzo[b]carbazole-3-carbonitrile] |
